Measured values: PMC10815238, “New N-Terminal Fatty-Acid-Modified Melittin Analogs with Potent Biological Activity” (International Journal of Molecular Sciences, 2024)

Key:
[1] = system: S. aureus ATCC 43300; assay: Salt sensitivity (MIC in the presence of physiological salts); assay type: cell-based, Staphylococcus aureus; parameters: key: MIC in μg/mL (two-fold dilutions 256 to 0.25 μg/mL); conditions: for MIC, MgCl2: 1 mM MgCl2, unit not given in Table 4; for MIC, FeCl3: 4 mM FeCl3, unit not given in Table 4; for MIC, KCl: 4.5 mM KCl; for MIC, KCl / MIC, NaCl: unit not given in Table 4; for MIC, NaCl: 150 mM NaCl; for MIC, Control: no added salt, unit not given in Table 4 (Table 3 MIC in μg/mL)
Experimental: (§1) MIC was determined using the broth microdilution method with minor modification. In brief, bacteria (S. aureus ATCC 43300, E. faecalis ATCC 29212, E. coli ATCC 25922, P. aeruginosa ATCC 27853, L. monocytogenes CVCC 3764, B. cereus CVCC 4101, S. Castellani CGMCC 1.1869, and the multidrug-resistant E. coli strain) were cultured in nutrient broth (NB) medium (Macklin, Shanghai, China) to the logarithmic phase and diluted to 1 × 10^6 colony forming units (CFUs)/mL. The MDLs were dissolved to a final concentration of 256~0.25 μg/mL in NB medium using two-fold dilutions. A total of 50 μL of different concentrations of the MDL solutions and an equal volume of bacterial suspension were added to a 96-well plate, which was then incubated at 37 °C for 18 h. The minimum concentrations of the MDLs with no visible growth of bacteria were defined as the corresponding MICs. Media containing bacteria without the MDLs were set as the negative control. Each measurement was performed independently three times.
(§2) This was carried out in triplicate and tested at least twice.

[2] = CD measurements of secondary structure; assay type: physicochemical; conditions: 0.5 mg/mL, 25 °C
Experimental: The CD spectra of the MDLs were measured at 25 °C on a Chirascan spectrometer (Applied Photophysics, Surrey, UK) using a quartz cell with a 1.0 mm path length, recording from 180 to 260 nm. A scanning speed of 50 nm/min was used and the bandwidth was 1 nm. The optical path and slit width were 0.1 cm and 0.1 nm, respectively. […], 50% TFE (Macklin, Shanghai, China) was used to mimic the hydrophobic condition of the microbial membrane, and 25 mM SDS (Macklin, Shanghai, China) micelles were used to mimic the negatively charged prokaryotic membrane. The observed ellipticity was converted to molar ellipticity using the following equation: θ=θobs(MRW/10×c×l) where [θ] is the molar ellipticity (deg·cm^2·dmol^−1), θobs is the observed ellipticity corrected for the buffer at a given wavelength (mdeg), MRW is the mean residual molecular weight (molecular weight/number of amino acids), c is the peptide concentration (mg/mL), and l is the path length (cm). Assuming lipopeptides were a two-state model, the percentage in the α-helix structure of the MDLs was calculated using the following equation: α-helical content=−([θ]222 +2000)/30,000×100%

[3] = system: E. coli ATCC 25922; assay: Salt sensitivity (MIC in the presence of physiological salts); assay type: cell-based, Escherichia coli; parameters: key to MIC, NaCl / MIC, KCl / MIC, MgCl2: MIC in μg/mL (two-fold dilutions 256 to 0.25 μg/mL); conditions: for MIC, MgCl2: 1 mM MgCl2, unit not given in Table 4; for MIC, FeCl3: 4 mM FeCl3, unit not given in Table 4; for MIC, KCl: 4.5 mM KCl; for MIC, KCl / MIC, NaCl: unit not given in Table 4; for MIC, NaCl: 150 mM NaCl; for MIC, Control: no added salt, unit not given in Table 4 (Table 3 MIC in μg/mL)
Experimental: as §1, §2

[4] = Hydrophobicity assay (RP-HPLC retention time); assay type: physicochemical; conditions: chromatographic, ChromCore120 C18 column 4.6 x 250 mm 5 μm; 0.1 mg/mL in deionized water; A 0.1% TFA in water, B 0.1% TFA in acetonitrile; 5% B to 90% B over 30 min; 1 mL/min; UV 220 nm; three independent experiments
From the text: The hydrophobicity, amphipathicity, and positive charge distribution of lipopeptides are crucial for their antimicrobial activities. Among these, hydrophobicity has been deemed essential for promoting a hydrophobic interaction with the lipid bilayer, leading to membrane disruption, cytoplasm leakage, and eventual cell death. Lipopeptides with different peptide sequences and chain lengths usually show different hydrophobicities, generating different RTs in the RP-HPLC analysis. The more hydrophobic the lipopeptide, the longer the RT on the column.
Each MDL was dissolved and diluted to 0.1 mg/mL in deionized water (obtained in-house) and then subjected to RP-HPLC on a ChromCore120 C18 column (4.6 × 250 mm, 5 μm) (NanoChrom, Suzhou, China) using 0.1% trifluoroacetic acid (TFA) (Macklin, Shanghai, China) in water as solvent A and 0.1% TFA in acetonitrile (Merck, Darmstadt, Germany) as solvent B. The elution gradient was as follows: 5% B to 90% B over 30 min, 90% B maintained for 2 min, and 90% B to 5% B over 1 min. The flow rate was 1 mL/min and measurements were taken at 220 nm. The retention time was recorded for each MDL.

SMILES | MIC, MgCl2 [1] | MIC, FeCl3 [1] | MIC, KCl [1] | MIC, NaCl [1] | MIC, Control [1] | α-Helix, % ([2]; 25 mM SDS) | β-Fold, % ([2]; 25 mM SDS) | α-Helix, % ([2]; 50% TFE) | β-Fold, % ([2]; 50% TFE) | α-Helix, % ([2]; PBS Buffer) | β-Fold, % ([2]; PBS Buffer) | MIC, MgCl2 [3] | MIC, FeCl3 [3] | MIC, KCl [3] | MIC, NaCl [3] | RT, Min (RP-HPLC retention time, measure of hydrophobicity) [4] | MIC, Control [3]
CC[C@H](C)[C@H](NC(=O)CNC(C)=O)C(=O)NCC(=O)N[C@@H](C)C(=O)N[C@H](C(=O)N[C@@H](CC(C)C)C(=O)N[C@@H](CCCCN)C(=O)N[C@H](C(=O)N[C@@H](CC(C)C)C(=O)N[C@H](C(=O)N[C@H](C(=O)NCC(=O)N[C@@H](CC(C)C)C(=O)N1CCC[C@H]1C(=O)N[C@@H](C)C(=O)N[C@@H](CC(C)C)C(=O)N[C@H](C(=O)N[C@@H](CO)C(=O)N[C@@H](Cc1c[nH]c2ccccc12)C(=O)N[C@H](C(=O)N[C@@H](CCCCN)C(=O)N[C@@H](CCCNC(=N)N)C(=O)N[C@@H](CCCCN)C(=O)N[C@@H](CCCNC(=N)N)C(=O)N[C@@H](CCC(N)=O)C(=O)N[C@@H](CCC(N)=O)C(N)=O)[C@@H](C)CC)[C@@H](C)CC)[C@@H](C)O)[C@@H](C)O)C(C)C)C(C)C [Peptide C2-Mel] | 16 | 16 | 4 | 4 | 4 | 20.9% | 19.9% | 26.5% | 17.8% | 6% | 32.8% | 32 | 32 | 16 | 16 | 12.247 ± 0.021 min | –
CCCC(=O)NCC(=O)N[C@H](C(=O)NCC(=O)N[C@@H](C)C(=O)N[C@H](C(=O)N[C@@H](CC(C)C)C(=O)N[C@@H](CCCCN)C(=O)N[C@H](C(=O)N[C@@H](CC(C)C)C(=O)N[C@H](C(=O)N[C@H](C(=O)NCC(=O)N[C@@H](CC(C)C)C(=O)N1CCC[C@H]1C(=O)N[C@@H](C)C(=O)N[C@@H](CC(C)C)C(=O)N[C@H](C(=O)N[C@@H](CO)C(=O)N[C@@H](Cc1c[nH]c2ccccc12)C(=O)N[C@H](C(=O)N[C@@H](CCCCN)C(=O)N[C@@H](CCCNC(=N)N)C(=O)N[C@@H](CCCCN)C(=O)N[C@@H](CCCNC(=N)N)C(=O)N[C@@H](CCC(N)=O)C(=O)N[C@@H](CCC(N)=O)C(N)=O)[C@@H](C)CC)[C@@H](C)CC)[C@@H](C)O)[C@@H](C)O)C(C)C)C(C)C)[C@@H](C)CC [Peptide C4-Mel] | 16 | 16 | 4 | 2 | 2 | 19.3% | 23.8% | 20.7% | 25.4% | 6.1% | 33.7% | 32 | 32 | 16 | 8 | 13.704 ± 0.005 min | 8
CCCCCC(=O)NCC(=O)N[C@H](C(=O)NCC(=O)N[C@@H](C)C(=O)N[C@H](C(=O)N[C@@H](CC(C)C)C(=O)N[C@@H](CCCCN)C(=O)N[C@H](C(=O)N[C@@H](CC(C)C)C(=O)N[C@H](C(=O)N[C@H](C(=O)NCC(=O)N[C@@H](CC(C)C)C(=O)N1CCC[C@H]1C(=O)N[C@@H](C)C(=O)N[C@@H](CC(C)C)C(=O)N[C@H](C(=O)N[C@@H](CO)C(=O)N[C@@H](Cc1c[nH]c2ccccc12)C(=O)N[C@H](C(=O)N[C@@H](CCCCN)C(=O)N[C@@H](CCCNC(=N)N)C(=O)N[C@@H](CCCCN)C(=O)N[C@@H](CCCNC(=N)N)C(=O)N[C@@H](CCC(N)=O)C(=O)N[C@@H](CCC(N)=O)C(N)=O)[C@@H](C)CC)[C@@H](C)CC)[C@@H](C)O)[C@@H](C)O)C(C)C)C(C)C)[C@@H](C)CC [Peptide C6-Mel] | 8 | 8 | 2 | – | – | 18.4% | – | 22.4% | – | 6.5% | – | 16 | 16 | 8 | 4 | 15.567 ± 0.006 min | 4
CCCCCCCC(=O)NCC(=O)N[C@H](C(=O)NCC(=O)N[C@@H](C)C(=O)N[C@H](C(=O)N[C@@H](CC(C)C)C(=O)N[C@@H](CCCCN)C(=O)N[C@H](C(=O)N[C@@H](CC(C)C)C(=O)N[C@H](C(=O)N[C@H](C(=O)NCC(=O)N[C@@H](CC(C)C)C(=O)N1CCC[C@H]1C(=O)N[C@@H](C)C(=O)N[C@@H](CC(C)C)C(=O)N[C@H](C(=O)N[C@@H](CO)C(=O)N[C@@H](Cc1c[nH]c2ccccc12)C(=O)N[C@H](C(=O)N[C@@H](CCCCN)C(=O)N[C@@H](CCCNC(=N)N)C(=O)N[C@@H](CCCCN)C(=O)N[C@@H](CCCNC(=N)N)C(=O)N[C@@H](CCC(N)=O)C(=O)N[C@@H](CCC(N)=O)C(N)=O)[C@@H](C)CC)[C@@H](C)CC)[C@@H](C)O)[C@@H](C)O)C(C)C)C(C)C)[C@@H](C)CC [Peptide C8-Mel] | 8 | 8 | – | 0.5 | 0.5 | 18.2% | – | 18.8% | – | 7% | – | 8 | 8 | 8 | 2 | 17.845 ± 0.013 min | 2
CCCCCCCCCC(=O)NCC(=O)N[C@H](C(=O)NCC(=O)N[C@@H](C)C(=O)N[C@H](C(=O)N[C@@H](CC(C)C)C(=O)N[C@@H](CCCCN)C(=O)N[C@H](C(=O)N[C@@H](CC(C)C)C(=O)N[C@H](C(=O)N[C@H](C(=O)NCC(=O)N[C@@H](CC(C)C)C(=O)N1CCC[C@H]1C(=O)N[C@@H](C)C(=O)N[C@@H](CC(C)C)C(=O)N[C@H](C(=O)N[C@@H](CO)C(=O)N[C@@H](Cc1c[nH]c2ccccc12)C(=O)N[C@H](C(=O)N[C@@H](CCCCN)C(=O)N[C@@H](CCCNC(=N)N)C(=O)N[C@@H](CCCCN)C(=O)N[C@@H](CCCNC(=N)N)C(=O)N[C@@H](CCC(N)=O)C(=O)N[C@@H](CCC(N)=O)C(N)=O)[C@@H](C)CC)[C@@H](C)CC)[C@@H](C)O)[C@@H](C)O)C(C)C)C(C)C)[C@@H](C)CC [Peptide C10-Mel] | 32 | 32 | 8 | 2 | 2 | 17.1% | 28.8% | 18.4% | 22.1% | 7.5% | 41.1% | 32 | 32 | 16 | 8 | 20.541 ± 0.029 min | 8
